Source: patent US9580444B2, “Polycyclic pyrazolinone derivative and herbicide comprising same as effective component thereof” (priority 2013, dated 2017)

Columns and labels:
Test in all cases: Test Example-1: herbicidal effect by a treatment before weeds are generated under submerged conditions
Type in all cases: in vivo
Settings in all cases: 500 g a.i/ha, pre-emergence treatment, about 15 days after treatment, score 0-5
[1] = system: Cyperus difformis (smallflower umbrella plant)
Protocol: (§1) Using the formulation prepared according to the methods described above, the herbicidal effect of the bicyclic pyrazolinone derivative of the invention according to the methods shown in Test Examples below was examined. The herbicidal effect with respect to the test weeds or the phytotoxicity with respect to the test crops was examined according to the following criteria, and evaluated in six stage scores of 0 to 5.
(§2) A plastic cup of 30 cm^2 was filled with paddy soil, soil puddling was performed, seeds of Echinochloa oryzicola (barnyard grass), Cyperus difformis (smallflower umbrella plant), Monochoria vaginalis (monochoria), Scirpus juncoides (bulrush), and Eleocharis acicularis (needle spikerush), and Lindernia procumbens (common false pimpernel), Rotala indica (indian toothcup), Elatine triandra (waterwort) as other annual broad leaf weeds were seeded therein, and kept in a submerged state. A wettable powder or an emulsifiable concentrate of the compound of the present invention prepared according to Formulation Example was diluted on the weed seeding day, and a submersing treatment was performed so as to be a predetermined dosage. The herbicidal effect with respect to the test weeds about 15 days after the treatment was evaluated according to the evaluation criteria in six stages of 0 to 5 described above.

[2] = system: Echinochloa oryzicola (barnyard grass)
Protocol: as §1, §2

[3] = system: Eleocharis acicularis (needle spikerush)
Protocol: as §1, §2

[4] = system: Monochoria vaginalis (monochoria)
Protocol: as §1, §2

[5] = system: Scirpus juncoides (bulrush)
Protocol: as §1, §2

[6] = system: other annual broad leaf weeds (Lindernia procumbens, Rotala indica, Elatine triandra)
Protocol: as §1, §2

COc1cc(-c2c(F)n3n(c2=O)CCCC3)c(Cl)cc1Cl [Example 1-356]
Herbicidal effect Cyperus difformis [1]: 5 (Herbicidal effect/phytotoxicity was 90% or greater)
Herbicidal effect Echinochloa oryzicola [2]: 5 (Herbicidal effect/phytotoxicity was 90% or greater)
Herbicidal effect Eleocharis acicularis [3]: 5 (Herbicidal effect/phytotoxicity was 90% or greater)
Herbicidal effect Monochoria vaginalis [4]: 5 (Herbicidal effect/phytotoxicity was 90% or greater)
Herbicidal effect Scirpus juncoides [5]: 5 (Herbicidal effect/phytotoxicity was 90% or greater)
Herbicidal effect Broadleaf weed [6]: 5 (Herbicidal effect/phytotoxicity was 90% or greater)

O=c1c(-c2cc(Oc3c(F)cc(C(F)(F)F)cc3Cl)c(F)cc2F)c(Cl)n2n1CCCC2 [Example 1-340]
Herbicidal effect Cyperus difformis [1]: 5 (Herbicidal effect/phytotoxicity was 90% or greater)
Herbicidal effect Echinochloa oryzicola [2]: 5 (Herbicidal effect/phytotoxicity was 90% or greater)
Herbicidal effect Eleocharis acicularis [3]: 5 (Herbicidal effect/phytotoxicity was 90% or greater)
Herbicidal effect Monochoria vaginalis [4]: 5 (Herbicidal effect/phytotoxicity was 90% or greater)
Herbicidal effect Scirpus juncoides [5]: 5 (Herbicidal effect/phytotoxicity was 90% or greater)
Herbicidal effect Broadleaf weed [6]: 5 (Herbicidal effect/phytotoxicity was 90% or greater)

COc1cc(F)ccc1Oc1cc(-c2c(Cl)n3n(c2=O)CCCC3)c(F)cc1Cl [Compound 3-33]
Herbicidal effect Cyperus difformis [1]: 5 (Herbicidal effect/phytotoxicity was 90% or greater)
Herbicidal effect Echinochloa oryzicola [2]: 5 (Herbicidal effect/phytotoxicity was 90% or greater)
Herbicidal effect Eleocharis acicularis [3]: 5 (Herbicidal effect/phytotoxicity was 90% or greater)
Herbicidal effect Monochoria vaginalis [4]: 5 (Herbicidal effect/phytotoxicity was 90% or greater)
Herbicidal effect Scirpus juncoides [5]: 5 (Herbicidal effect/phytotoxicity was 90% or greater)
Herbicidal effect Broadleaf weed [6]: 5 (Herbicidal effect/phytotoxicity was 90% or greater)

C=CCOC(=O)C=C(COc1cc(-c2c(Cl)n3n(c2=O)CCCC3)c(F)cc1Cl)OCC (mixture of isomers) [Compound 2-11]
Herbicidal effect Cyperus difformis [1]: 5 (Herbicidal effect/phytotoxicity was 90% or greater)
Herbicidal effect Echinochloa oryzicola [2]: 5 (Herbicidal effect/phytotoxicity was 90% or greater)
Herbicidal effect Eleocharis acicularis [3]: 5 (Herbicidal effect/phytotoxicity was 90% or greater)
Herbicidal effect Monochoria vaginalis [4]: 5 (Herbicidal effect/phytotoxicity was 90% or greater)
Herbicidal effect Scirpus juncoides [5]: 5 (Herbicidal effect/phytotoxicity was 90% or greater)
Herbicidal effect Broadleaf weed [6]: 5 (Herbicidal effect/phytotoxicity was 90% or greater)

O=c1c(-c2cc(Oc3c(F)cc(C(F)(F)F)cc3Cl)c(Cl)cc2F)c(Cl)n2n1CCCC2 [Example 1-254]
Herbicidal effect Cyperus difformis [1]: 5 (Herbicidal effect/phytotoxicity was 90% or greater)
Herbicidal effect Echinochloa oryzicola [2]: 5 (Herbicidal effect/phytotoxicity was 90% or greater)
Herbicidal effect Eleocharis acicularis [3]: 5 (Herbicidal effect/phytotoxicity was 90% or greater)
Herbicidal effect Monochoria vaginalis [4]: 5 (Herbicidal effect/phytotoxicity was 90% or greater)
Herbicidal effect Scirpus juncoides [5]: 5 (Herbicidal effect/phytotoxicity was 90% or greater)
Herbicidal effect Broadleaf weed [6]: 5 (Herbicidal effect/phytotoxicity was 90% or greater)

COC(=O)COc1ccccc1Oc1cc(-c2c(Cl)n3n(c2=O)CCCC3)c(F)cc1Cl [Compound 3-16]
Herbicidal effect Cyperus difformis [1]: 5 (Herbicidal effect/phytotoxicity was 90% or greater)
Herbicidal effect Echinochloa oryzicola [2]: 5 (Herbicidal effect/phytotoxicity was 90% or greater)
Herbicidal effect Eleocharis acicularis [3]: 5 (Herbicidal effect/phytotoxicity was 90% or greater)
Herbicidal effect Monochoria vaginalis [4]: 5 (Herbicidal effect/phytotoxicity was 90% or greater)
Herbicidal effect Scirpus juncoides [5]: 5 (Herbicidal effect/phytotoxicity was 90% or greater)
Herbicidal effect Broadleaf weed [6]: 5 (Herbicidal effect/phytotoxicity was 90% or greater)

C=CCOc1ccc(Oc2cc(-c3c(Cl)n4n(c3=O)CCCC4)c(F)cc2Cl)cc1 [Compound 3-29]
Herbicidal effect Cyperus difformis [1]: 5 (Herbicidal effect/phytotoxicity was 90% or greater)
Herbicidal effect Echinochloa oryzicola [2]: 5 (Herbicidal effect/phytotoxicity was 90% or greater)
Herbicidal effect Eleocharis acicularis [3]: 5 (Herbicidal effect/phytotoxicity was 90% or greater)
Herbicidal effect Monochoria vaginalis [4]: 5 (Herbicidal effect/phytotoxicity was 90% or greater)
Herbicidal effect Scirpus juncoides [5]: 5 (Herbicidal effect/phytotoxicity was 90% or greater)
Herbicidal effect Broadleaf weed [6]: 5 (Herbicidal effect/phytotoxicity was 90% or greater)

C=CCOC(=O)C=C(COc1ccccc1Oc1cc(-c2c(Cl)n3n(c2=O)CCCC3)c(F)cc1Cl)OCC [Compound 3-25]
Herbicidal effect Cyperus difformis [1]: 5 (Herbicidal effect/phytotoxicity was 90% or greater)
Herbicidal effect Echinochloa oryzicola [2]: 5 (Herbicidal effect/phytotoxicity was 90% or greater)
Herbicidal effect Eleocharis acicularis [3]: 5 (Herbicidal effect/phytotoxicity was 90% or greater)
Herbicidal effect Monochoria vaginalis [4]: 5 (Herbicidal effect/phytotoxicity was 90% or greater)
Herbicidal effect Scirpus juncoides [5]: 5 (Herbicidal effect/phytotoxicity was 90% or greater)
Herbicidal effect Broadleaf weed [6]: 5 (Herbicidal effect/phytotoxicity was 90% or greater)

CCOC(=CC(=O)OC)COc1cc(-c2c(Cl)n3n(c2=O)CCCC3)c(F)cc1Cl (mixture of isomers) [Compound 2-12]
Herbicidal effect Cyperus difformis [1]: 5 (Herbicidal effect/phytotoxicity was 90% or greater)
Herbicidal effect Echinochloa oryzicola [2]: 5 (Herbicidal effect/phytotoxicity was 90% or greater)
Herbicidal effect Eleocharis acicularis [3]: 5 (Herbicidal effect/phytotoxicity was 90% or greater)
Herbicidal effect Monochoria vaginalis [4]: 5 (Herbicidal effect/phytotoxicity was 90% or greater)
Herbicidal effect Scirpus juncoides [5]: 5 (Herbicidal effect/phytotoxicity was 90% or greater)
Herbicidal effect Broadleaf weed [6]: 5 (Herbicidal effect/phytotoxicity was 90% or greater)

COCOc1ccc(Oc2cc(-c3c(Cl)n4n(c3=O)CCCC4)c(F)cc2Cl)cc1 [Compound 3-15]
Herbicidal effect Cyperus difformis [1]: 5 (Herbicidal effect/phytotoxicity was 90% or greater)
Herbicidal effect Echinochloa oryzicola [2]: 5 (Herbicidal effect/phytotoxicity was 90% or greater)
Herbicidal effect Eleocharis acicularis [3]: 5 (Herbicidal effect/phytotoxicity was 90% or greater)
Herbicidal effect Monochoria vaginalis [4]: 5 (Herbicidal effect/phytotoxicity was 90% or greater)
Herbicidal effect Scirpus juncoides [5]: 5 (Herbicidal effect/phytotoxicity was 90% or greater)
Herbicidal effect Broadleaf weed [6]: 5 (Herbicidal effect/phytotoxicity was 90% or greater)

C#CCOc1cc(Cl)ccc1Oc1cc(-c2c(Cl)n3n(c2=O)CCCC3)c(F)cc1Cl [Compound 3-39]
Herbicidal effect Cyperus difformis [1]: 5 (Herbicidal effect/phytotoxicity was 90% or greater)
Herbicidal effect Echinochloa oryzicola [2]: 5 (Herbicidal effect/phytotoxicity was 90% or greater)
Herbicidal effect Eleocharis acicularis [3]: 5 (Herbicidal effect/phytotoxicity was 90% or greater)
Herbicidal effect Monochoria vaginalis [4]: 5 (Herbicidal effect/phytotoxicity was 90% or greater)
Herbicidal effect Scirpus juncoides [5]: 5 (Herbicidal effect/phytotoxicity was 90% or greater)
Herbicidal effect Broadleaf weed [6]: 5 (Herbicidal effect/phytotoxicity was 90% or greater)

CCOC(=O)C=C(COc1cc(-c2c(Cl)n3n(c2=O)CCCC3)c(F)cc1Cl)OCC (mixture of isomers) [Compound 2-19]
Herbicidal effect Cyperus difformis [1]: 5 (Herbicidal effect/phytotoxicity was 90% or greater)
Herbicidal effect Echinochloa oryzicola [2]: 5 (Herbicidal effect/phytotoxicity was 90% or greater)
Herbicidal effect Eleocharis acicularis [3]: 5 (Herbicidal effect/phytotoxicity was 90% or greater)
Herbicidal effect Monochoria vaginalis [4]: 5 (Herbicidal effect/phytotoxicity was 90% or greater)
Herbicidal effect Scirpus juncoides [5]: 5 (Herbicidal effect/phytotoxicity was 90% or greater)
Herbicidal effect Broadleaf weed [6]: 5 (Herbicidal effect/phytotoxicity was 90% or greater)

CCCOC(=CC(=O)OCC(C)C)COc1cc(-c2c(Cl)n3n(c2=O)CCCC3)c(F)cc1Cl [Compound 2-34]
Herbicidal effect Cyperus difformis [1]: 5 (Herbicidal effect/phytotoxicity was 90% or greater)
Herbicidal effect Echinochloa oryzicola [2]: 5 (Herbicidal effect/phytotoxicity was 90% or greater)
Herbicidal effect Eleocharis acicularis [3]: 5 (Herbicidal effect/phytotoxicity was 90% or greater)
Herbicidal effect Monochoria vaginalis [4]: 5 (Herbicidal effect/phytotoxicity was 90% or greater)
Herbicidal effect Scirpus juncoides [5]: 5 (Herbicidal effect/phytotoxicity was 90% or greater)
Herbicidal effect Broadleaf weed [6]: 5 (Herbicidal effect/phytotoxicity was 90% or greater)
